According to US9603843B2, “Kits and methods for treating post traumatic stress disorder (PTSD) and hot flashes” (CAD MEDICAL SOLUTIONS, LLC, priority 2013, dated 2017):
Where two headings read alike, the source gives them in different places.

Key:
[1] = tested on: PTSD; conditions: Navy study, ultrasound guidance, not xray guidance; cited from earlier work
[2] = cited from earlier work
[3] = tested on: patient having PTSD; conditions: patient treated with CB without and with clonidine
Description: The procedure involved a local anesthetic mixed with clonidine delivered by a shot in the patient's neck in a procedure that is similar to an epidural given to women in labor.

[4] = tested on: peripheral nerve blocks; conditions: cited from earlier work
[5] = tested on: dogs; conditions: cited from earlier work
[6] = group 1: left SGB, 0.5% mepivacaine 1 ml

CCCN1CCCC[C@H]1C(=O)Nc1c(C)cccc1C [Ropivacaine, ropivacaine]
RCSGI versus placebo [1]: no difference

CCCCN1CCCCC1C(=O)Nc1c(C)cccc1C (centres unmarked) [bupivacaine]
solubility ([2]; 95 percent ethanol): freely soluble
solubility ([2]; chloroform or acetone): slightly soluble
solubility ([2]; water): soluble

Clc1cccc(Cl)c1N=C1NCCN1 [clonidine]
patient-reported result with clonidine over the local anesthetic alone [3]: significantly more effective result
duration of analgesia and anesthesia ([4]; adjunct to intermediate-acting local anesthetics for some peripheral nerve blocks): improves
side-effects ([4]; doses up to 150 µg): limited

Cc1cccc(C)c1NC(=O)C1CCCCN1C (centres unmarked) [mepivacaine]
left brachial artery blood flow (BABF) after left SGB ([5]; group 1: 0.5% mepivacaine 1 ml): increased significantly
right BABF after left SGB ([5]; group 1: 0.5% mepivacaine 1 ml): decreased significantly
heart rate (HR) [5, 6]: no significant change
mean arterial pressure (MAP) [5, 6]: no significant change
